In patent US11945822B2, “Pyrazolo-triazine and/or pyrazolo-pxrimidine derivatives as selective inhibitor of cyclin dependent kinase” (QURIENT CO., LTD., priority 2018, dated 2024):

Columns and labels:
CDK1/Cyclin B = target: T1, CDK1/Cyclin B (Homo sapiens, UniProt P06493); experiment: Enzymatic assay for CDK1 (FRET based LANCE Ultra kinase assay); format: biochemical; conditions: read-out: CDK1 enzymatic activity (IC50 range)
T1 construct: purchased Invitrogen PR4768C
How it was run: (§1)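 Each CDK complex ([…]) phosphorylated 68 nM ULight-MBP peptide with ATP at Km for 60 min at 23° C., against 8 compound doses (4-fold dilutions). EDTA/Eu-anti-phospho-MBP detection, 60 min, then TR-FRET emission at 615 and 665 nm.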

CDK2/Cyclin A = target: T2, CDK2/Cyclin A (Homo sapiens, UniProt P24941); experiment: Enzymatic assay for CDK2 (FRET based LANCE Ultra kinase assay); format: biochemical; conditions: read-out: CDK2 enzymatic activity (IC50 range)
T2 construct: purchased Invitrogen PV6290
How it was run: as §1

CDK5/p25 = target: T3, CDK5/p25 (Homo sapiens, UniProt Q00535); experiment: Enzymatic assay for CDK5 (FRET based LANCE Ultra kinase assay); format: biochemical; conditions: read-out: CDK5 enzymatic activity (IC50 range)
T3 construct: purchased Invitrogen PR8543B
T3 sequence (Q00535 whole entry): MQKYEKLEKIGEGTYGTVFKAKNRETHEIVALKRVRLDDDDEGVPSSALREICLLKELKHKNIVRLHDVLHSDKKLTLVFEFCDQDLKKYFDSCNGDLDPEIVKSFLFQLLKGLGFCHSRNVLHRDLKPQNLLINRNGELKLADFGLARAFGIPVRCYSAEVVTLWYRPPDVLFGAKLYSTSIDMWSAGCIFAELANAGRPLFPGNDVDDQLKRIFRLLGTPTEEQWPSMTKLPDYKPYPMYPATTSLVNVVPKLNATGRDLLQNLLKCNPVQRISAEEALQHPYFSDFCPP
T3 sequence (Q15078 99-307 partner limits assumed): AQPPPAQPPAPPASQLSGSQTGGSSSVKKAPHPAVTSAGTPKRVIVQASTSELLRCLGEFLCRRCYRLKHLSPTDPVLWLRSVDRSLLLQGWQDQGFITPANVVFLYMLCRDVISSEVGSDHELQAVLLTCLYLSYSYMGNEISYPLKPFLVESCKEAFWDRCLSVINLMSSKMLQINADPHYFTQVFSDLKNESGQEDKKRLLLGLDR
How it was run: as §1

CDK7/Cyclin H/MNAT1 = target: T4, CDK7/Cyclin H/MNAT1 (Homo sapiens, UniProt P50613); experiment: Enzymatic assay for CDK7 (FRET based LANCE Ultra kinase assay); format: biochemical; conditions: for IC50: read-out: CDK7 enzymatic activity (IC50 range)
T4 construct: purchased Invitrogen PR6749B
T4 sequence (P50613 whole entry): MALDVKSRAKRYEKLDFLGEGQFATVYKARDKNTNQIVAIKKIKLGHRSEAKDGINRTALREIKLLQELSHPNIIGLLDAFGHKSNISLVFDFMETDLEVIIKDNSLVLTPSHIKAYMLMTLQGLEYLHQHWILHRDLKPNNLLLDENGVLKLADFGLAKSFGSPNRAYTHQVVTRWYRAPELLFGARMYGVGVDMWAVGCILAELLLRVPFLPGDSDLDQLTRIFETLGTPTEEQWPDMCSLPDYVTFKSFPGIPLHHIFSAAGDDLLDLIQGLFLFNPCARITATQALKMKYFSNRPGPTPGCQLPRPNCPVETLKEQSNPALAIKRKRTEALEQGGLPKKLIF
T4 sequence (P51946 whole entry partner): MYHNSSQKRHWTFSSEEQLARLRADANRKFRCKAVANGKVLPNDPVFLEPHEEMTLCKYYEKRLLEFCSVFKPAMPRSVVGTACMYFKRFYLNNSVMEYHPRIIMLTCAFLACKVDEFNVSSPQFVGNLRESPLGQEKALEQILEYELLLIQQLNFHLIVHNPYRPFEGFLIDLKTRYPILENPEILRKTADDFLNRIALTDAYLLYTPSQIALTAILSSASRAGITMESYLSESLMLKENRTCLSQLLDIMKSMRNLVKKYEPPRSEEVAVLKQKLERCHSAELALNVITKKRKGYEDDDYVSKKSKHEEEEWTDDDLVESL
T4 sequence (P51948 whole entry partner): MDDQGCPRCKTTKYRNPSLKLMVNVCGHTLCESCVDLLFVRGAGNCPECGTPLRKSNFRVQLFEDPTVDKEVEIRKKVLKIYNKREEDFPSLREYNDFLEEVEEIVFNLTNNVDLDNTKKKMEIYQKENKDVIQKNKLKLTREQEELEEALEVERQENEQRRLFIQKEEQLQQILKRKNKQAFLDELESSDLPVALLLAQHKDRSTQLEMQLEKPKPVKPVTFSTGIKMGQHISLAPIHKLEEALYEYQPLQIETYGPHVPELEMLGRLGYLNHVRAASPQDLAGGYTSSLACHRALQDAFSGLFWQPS
How it was run: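 LANCE Ultra TR-FRET kinase assay using a ULight-labeled peptide substrate and a Eu-labeled anti-phospho antibody, with ATP at its Km. Purified CDK/cyclin complex was added to compound after brief centrifugation.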

H460 = experiment: Cellular H460 viability assay (CellTiter-Glo, 72 hours); format: cell-based; conditions: Homo sapiens, NCI-H460
How it was run: (§2)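 Cells were plated at line-specific densities and exposed to compound for 72 hours at 37 °C, 5% CO2, with DMSO-only wells as control (final DMSO below 0.1%). Viability was measured by CellTiter-Glo luminescence in duplicate.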

MV4-11 = experiment: Cellular MV4-11 viability assay (CellTiter-Glo, 72 hours); format: cell-based; conditions: Homo sapiens
How it was run: as §2

RPMI-8226 = experiment: Cellular RPMI-8226 viability assay (CellTiter-Glo, 72 hours); format: cell-based; conditions: Homo sapiens
Procedure: All cell lines were routinely tested for mycoplasma.
The effect of the CDK7 inhibitor to inhibit the growth of target cancer cells was evaluated through the 72 hours time period of viability assay. Briefly, the candidate cell line ware plated in 96 well plate at the following density of cells respectively. […] DMSO solvent without compound served as a control and final DMSO concentration less than 0.1%. After 72 hours of incubation at 37° C., 5% CO2 incubator, cells were analyzed for the viability using the CellTiter-Glo Luminescent Cell Viability Assay (Promega, Cat #G7570). All viability assays were performed in duplicate and Luminescence was read using an Envision (Perkin Elmer, USA). Data was analyzed using XLfit software.

HCT116 = experiment: Cellular HCT116 viability assay (CellTiter-Glo, 72 hours); format: cell-based; conditions: Homo sapiens, HCT-116
How it was run: as §2

T1 sequence (P06493 whole entry): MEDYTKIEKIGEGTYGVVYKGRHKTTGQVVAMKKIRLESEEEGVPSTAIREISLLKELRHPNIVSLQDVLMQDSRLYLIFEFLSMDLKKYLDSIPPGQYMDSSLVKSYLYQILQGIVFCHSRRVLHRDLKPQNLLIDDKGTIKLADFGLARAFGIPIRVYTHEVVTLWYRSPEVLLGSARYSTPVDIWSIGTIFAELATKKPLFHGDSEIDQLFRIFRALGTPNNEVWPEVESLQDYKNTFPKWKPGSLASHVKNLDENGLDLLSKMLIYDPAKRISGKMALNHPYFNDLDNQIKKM
T1 sequence (P14635 whole entry partner): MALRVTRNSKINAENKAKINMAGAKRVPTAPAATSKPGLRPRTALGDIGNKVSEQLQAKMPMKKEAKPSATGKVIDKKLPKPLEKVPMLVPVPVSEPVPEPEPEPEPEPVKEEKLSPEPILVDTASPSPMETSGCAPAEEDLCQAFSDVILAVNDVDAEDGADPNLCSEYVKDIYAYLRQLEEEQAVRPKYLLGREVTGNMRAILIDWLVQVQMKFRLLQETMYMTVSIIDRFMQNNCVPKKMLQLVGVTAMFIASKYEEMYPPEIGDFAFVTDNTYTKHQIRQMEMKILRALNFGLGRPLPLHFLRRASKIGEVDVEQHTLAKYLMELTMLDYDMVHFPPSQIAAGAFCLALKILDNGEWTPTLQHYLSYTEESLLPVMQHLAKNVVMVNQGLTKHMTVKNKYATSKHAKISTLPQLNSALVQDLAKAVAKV

Structure (SMILES)	IC50 (CDK1/Cyclin B)	IC50 (CDK2/Cyclin A)	IC50 (CDK5/p25)	CDK1/CDK7: Selectivity of CDK7 inhibition over CDK1 inhibition (CDK7/Cyclin H/MNAT1)	CDK2/CDK7: Selectivity of CDK7 inhibition over CDK2 inhibition (CDK7/Cyclin H/MNAT1)	CDK5/CDK7: Selectivity of CDK7 inhibition over CDK5 inhibition (CDK7/Cyclin H/MNAT1)	IC50 (CDK7/Cyclin H/MNAT1)	IC50 (H460)	IC50 (MV4-11)	IC50 (RPMI-8226)	IC50 (HCT116)
CC(C)c1cnn2c(NCc3ccccc3-c3[nH]c4ccccc4c3Cl)nc(N3CCC(N)CC3)nc12 [Compound 119]	> 1000 nM	100 to 1000 nM	100 to 1000 nM	A (A=greater than 200 fold)	B (B=less than 200 fold, but greater than 20 fold)	B (B=less than 200 fold, but greater than 20 fold)	< 100 nM	< 1000 nM	1000 to 10000 nM	1000 to 10000 nM	–
CC(C)c1cnn2c(NCc3ccccc3-c3cn4ccc(F)cc4n3)nc(N3CCC(N)CC3)nc12 [Compound 124]	100 to 1000 nM	100 to 1000 nM	< 100 nM	B (B=less than 200 fold, but greater than 20 fold)	B (B=less than 200 fold, but greater than 20 fold)	C (C=less than 20 fold)	< 100 nM	< 1000 nM	< 1000 nM	< 1000 nM	< 1000 nM
CC(C)c1cnn2c(NCc3ccccc3-c3ccc4[nH]cnc4c3)nc(N3CCC(N)CC3)nc12 [Compound 123]	100 to 1000 nM	100 to 1000 nM	< 100 nM	B (B=less than 200 fold, but greater than 20 fold)	B (B=less than 200 fold, but greater than 20 fold)	C (C=less than 20 fold)	< 100 nM	< 1000 nM	< 1000 nM	< 1000 nM	–
CC(C)c1cnn2c(NCc3ccccc3-n3cc4cc(C(N)=O)ccc4n3)nc(N3CCC(N)CC3)nc12 [Compound 146]	100 to 1000 nM	100 to 1000 nM	100 to 1000 nM	A (A=greater than 200 fold)	A (A=greater than 200 fold)	B (B=less than 200 fold, but greater than 20 fold)	< 100 nM	< 1000 nM	< 1000 nM	< 1000 nM	< 1000 nM
CC(C)c1cnn2c(NCc3ccccc3-c3ccc4[nH]c(=O)[nH]c4c3)nc(N3CCC(N)CC3)nc12 [Compound 140]	100 to 1000 nM	100 to 1000 nM	< 100 nM	B (B=less than 200 fold, but greater than 20 fold)	B (B=less than 200 fold, but greater than 20 fold)	C (C=less than 20 fold)	< 100 nM	1000 to 10000 nM	< 1000 nM	1000 to 10000 nM	–
CC(C)c1cnn2c(NCc3ccccc3-n3cc4cc(C(=O)N5CCCC5)ccc4n3)nc(N3CCC(N)CC3)nc12 [Compound 147]	> 1000 nM	> 1000 nM	100 to 1000 nM	A (A=greater than 200 fold)	B (B=less than 200 fold, but greater than 20 fold)	B (B=less than 200 fold, but greater than 20 fold)	< 100 nM	< 1000 nM	< 1000 nM	1000 to 10000 nM	< 1000 nM
CC(C)c1cnn2c(NCc3ccccc3N3Cc4ccccc4C3)nc(N3CCC(N)CC3)nc12 [Compound 128]	100 to 1000 nM	100 to 1000 nM	< 100 nM	B (B=less than 200 fold, but greater than 20 fold)	B (B=less than 200 fold, but greater than 20 fold)	C (C=less than 20 fold)	< 100 nM	< 1000 nM	< 1000 nM	< 1000 nM	–
CC(C)c1cnn2c(NCc3c(Cl)cccc3-c3ccc4[nH]cnc4c3)nc(N3CCC(N)CC3)nc12 [Compound 136]	> 1000 nM	> 1000 nM	100 to 1000 nM	A (A=greater than 200 fold)	A (A=greater than 200 fold)	B (B=less than 200 fold, but greater than 20 fold)	< 100 nM	1000 to 10000 nM	< 1000 nM	1000 to 10000 nM	< 1000 nM
CC(C)c1cnn2c(NCc3ccccc3-n3cc4ccncc4n3)nc(N3CCC(N)CC3)nc12 [Compound 139]	> 1000 nM	100 to 1000 nM	100 to 1000 nM	A (A=greater than 200 fold)	B (B=less than 200 fold, but greater than 20 fold)	B (B=less than 200 fold, but greater than 20 fold)	< 100 nM	< 1000 nM	< 1000 nM	< 1000 nM	< 1000 nM
CC(C)CC(=O)Nc1cccc2cc(-c3ccccc3CNc3nc(N4CCC(N)CC4)nc4c(C(C)C)cnn34)[nH]c12 [Compound 145]	100 to 1000 nM	100 to 1000 nM	< 100 nM	B (B=less than 200 fold, but greater than 20 fold)	B (B=less than 200 fold, but greater than 20 fold)	C (C=less than 20 fold)	< 100 nM	< 1000 nM	< 1000 nM	< 1000 nM	< 1000 nM
CC(C)c1cnn2c(NCc3ccccc3-n3cc4cc(C#N)ccc4n3)nc(N3CCC(N)CC3)nc12 [Compound 120]	> 1000 nM	100 to 1000 nM	100 to 1000 nM	A (A=greater than 200 fold)	A (A=greater than 200 fold)	B (B=less than 200 fold, but greater than 20 fold)	< 100 nM	< 1000 nM	< 1000 nM	< 1000 nM	–
CC(C)c1cnn2c(NCc3ccccc3-c3ccc4[nH]ncc4c3)nc(N3CCC(N)CC3)nc12 [Compound 137]	100 to 1000 nM	< 100 nM	< 100 nM	C (C=less than 20 fold)	C (C=less than 20 fold)	C (C=less than 20 fold)	< 100 nM	< 1000 nM	–	< 1000 nM	–
